Experimental findings from patent publication US12371434B2, “MLL1 inhibitors and anti-cancer agents” (NOVARTIS AG, priority 2020, dated 2025) are described below.

Assay [1] deals with wild type MLL1 four-member complex (MLL1-4C) (Homo sapiens, UniProt Q03164). Briefly: MLL1 LC-MS assay. Type of assay: biochemical. Conditions: 30 nM MLL1-4C, 2.5 μM SAM, 10 μM H3K4me0; SAH production by LC-MS/MS; read-out: MLL1 LCMS. As to the method: The compounds of the present disclosure were serially and separately diluted 3-fold in DMSO to obtain a total of eight or twelve concentrations. Then the test compounds at each concentration (120 nL of each) were transferred by Mosquito into white Proxiplate plus 384-well microplate (PerkinElmer). Solutions (6 μL) of 60 nM wild type MLL1 four-member complex (MLL1-4C) and 5 μM SAM in the reaction buffer (20 mM Tris-HCl, pH8.0, 0.01% Tween 20, 1 mM DTT, 10 mM MgCl2, 0.01% BSA) were added to the wells that were then incubated with the test compound for 20 min. A 6 μL solution of 20 μM of the peptide substrate H3K4me0 (histone H3[1-21]-Biotin) in the reaction buffer was added to initiate each reaction. The final components in the reaction solution include 30 nM MLL1-4C, 2.5 μM SAM, and 10 μM H3K4me0 with varying concentration of the compounds. A positive control consisted of 30 nM MLL1-4C, 2.5 μM SAM, and 10 μM substrate in the absence of the test compound, and a negative control consisted of 2.5 μM SAM, and 10 μM substrate only. Each reaction was incubated at rt for 120 min, then stopped by addition of 3 μL per of quench solution (2.5% TFA with 320 nM d4-SAH). The reaction mixture was centrifuged (Eppendorf centrifuge 5810, Rotor A-4-62) for 2 min at 2000 rmp. The SAH production from the enzymatic assays were monitored by LC-MS/MS on an API 4000 triple quadrupole mass spec with TurboIon Spray (Applied Biosystem) coupled with Prominenece UFLC(Shimazu). The level of SAH production were then normalized based on the values coming from the positive and negative controls to give percent enzyme activities. The data were then fit to a dose response equation using the program Helios (Novartis) to get the IC50 values of the test compounds.

Assay [2] has as its target wild type MLL1 five-member complex (MLL1-5C) (Homo sapiens, UniProt Q03164). The assay can be described thus: MLL1 Flashplate assay. Type of assay: biochemical. Particulars: 2.5 nM MLL1-5C, 0.5 μM 3H-SAM, 1 μM H3K4me0; read-out: MLL1 flash plate. The method, then: MLL1 Flashplate Assay To assess the compound potency in MLL1 Flashplate assay, compounds were serially diluted 3-fold in DMSO to obtain a total of twelve concentrations. Then the test compounds at each concentration (250 nL of each) were transferred by Mosquito into Corning #3675 384-well plate. Solutions (15 μL) of 4.2 nM wild type MLL1 five-member complex (MLL1-5C) in the assay buffer (20 mM Tris-HCl, pH8.0, 0.01% Tween 20, 1 mM DTT, 0.01% BSA) were added to the wells. A 10 μL solution of 2.5 μM of the peptide substrate H3K4me0 (histone H3[1-21]-Biotin) and 1.25 μM ^3H-SAM in the reaction buffer was then added to initiate each reaction. The final components in the reaction solution include 2.5 nM MLL1-5C, 0.5 μM ^3H-SAM, and 1 μM H3K4me0 with varying concentration of the compounds. A positive control consisted of 2.5 nM MLL1-5C, 0.5 μM ^3H-SAM, and 1 μM substrate in the absence of the test compound, and a negative control consisted of 0.5 μM ^3H-SAM, and 1 μM substrate only. Each reaction was incubated at rt for 90 min, then stopped by addition of 5 μL per of quench solution (0.5 mM SAM in assay buffer). 25 μL of each reaction solution was transferred to FlashPlate streptavidin 384-well microplate (PerkinElmer). After at least 1 h incubation at rt, the wells were washed three times with 0.1% Tween-20 in dH2O using the BioTek plate washer. The plates were then read in MicroBeta (PerkinElmer). The radioactive readouts were then normalized based on the values coming from the positive and negative controls to give percent enzyme activities. The data were then fit to a dose response equation using the program Helios to get the IC50 values of the test compounds.

In a further assay the test system is H3K4me3 in MV4-11 cells. The assay can be described thus: MV4-11 H3K4Me3 cellular ELISA assay. Type of assay: cell-based. Particulars: Homo sapiens, 48 hours, H3K4me3 signal normalized to total H3. As to the method: MV4-11H3K4Me3 Cellular ELISA Assay
MV4-11 (ATCC® CRL-9591™) was cultured with RPMI1640 medium (Thermo Fisher Scientific, cat #11875) supplemented with 10% FBS (Thermo Fisher Scientific, cat #10099141) and 50 U/ml Penicillin-Streptomycin (Thermo Fisher Scientific, cat #10378016) in humidified incubator at 37° C., 5% CO2.
200 nL compounds dissolved in DMSO were serially diluted at 1:3 ratio for 12 points starting from 10 mM and dispensed into each wells of cell culture plates (PDL-coated ViewPlate-384 Black, FTC, PerkinElmer, #6007710). 3,750 MV4-11 cells in 40 μL culture medium were seeded into each well and treated with desired concentration for 48 hours. After treatment, wash cells with cold phosphate based buffer (PBS, pH 7.4) and aspirate the remaining PBS buffer. Crude histone lysate was extracted by 40 μL 0.5M HCl for 1 hour in 4° C. following neutralization by adding 32 μL neutralization buffer (0.5M Sodium phosphate dibasic, pH˜12.5, 1.25 mM Dithiothreitol, Promega #V3151, Protease Inhibitor Cocktail, Sigma #8340) for each well. 5 μL and 20 μL of histone lysate was loaded to ELISA plate (384 Well Plates, PE HB, White, 6005620) for detection of total H3 and H3K4me3, respectively. Shake the plates gently in 4° C. for overnight. After histone binding, plates were washed with 80 μL PBS/T (PBS with 0.05% Tween-20) and blocked with 50 μL 3% BSA diluted in PBS/T per well for 1 hour. Incubate wells with primary antibody for 1 hour at room temperature using anti-H3K4me3 (CST #9727) and anti-total H3 (CST #9715) diluted 1:2000 in 3% BSA. Plates were then washed with PBS/T for 3 times and incubated with horseradish peroxidase (HRP) conjugated secondary antibody (CST #7074, 1:5000) for 1 hour at room temperature. The abundance of H3K4me3 and total H3 were measured by ECL substrates chemiluminesce (Pierce, #34080) on a plate reader (PerkinElmer EnVison 2104 Mutilable Reader). Percentage inhibition was calculated against DMSO control after normalization of H3K4me3 signal to H3 signal for individual samples. The data were then fit to a dose response curve using GraphPad Prism for IC50 calculation.

Another assay has as its system MV4-11 cells. The assay can be described thus: MV4-11 6-day cell growth CTG (CellTiter-Glo) assay. Type of assay: cell-based. Conditions: Homo sapiens, 144 h, 6 days. The method, then:
MV4-11 6-Day Cell Growth CTG (CellTiter-Glo) Assay
Acute myeloid leukemia cell MV4-11 (ATCC® CRL-9591™) was cultured with RPMI 1640 medium (Thermo Fisher Scientific, cat #11875) supplemented with 10% FBS (Thermo Fisher Scientific, cat #10099141) in humidified incubator at 37° C., 5% CO2. To assess the effect of MLL1 inhibition on cell growth, the compound of the present invention was dissolved in DMSO and serially diluted at 1:3 for 12 points starting from 10 mM then 200 nL for the replicate of each dose per well was dispensed to Viewplate-384 Black (Perkin Elmer). Exponentially growing MV4-11 cells were seeded at the density of 300 cells per well in 40 μL to the plate, so the final compound working concentration starts from 50 μM. After 6 days, 40 μL CellTiter-Glo (Promega, cat #G7573) was added into the cell culture well and luminescence was read with Envision (Perkin Elmer) to determine the viable cells. The percentage inhibition was calculated against the samples treated with DMSO only and the data were used for dose response curve fitting in GraphPad Prism to get the IC50 of representative compound of present invention, which reflects the inhibition of MLL1 activity.
A general note: ATP-based viability assays read luminescence as a measure of living cells.

With `COC[C@H](N)CCOc1cc(Cl)cc(Br)c1Cn1cnc2c(N)ncnc21` [Example 2, (R)-9-(2-(3-amino-4-methoxybutoxy)-6-bromo-4-chlorobenzyl)-9H-purin-6-amine], the IC50 in assay [1] and in assay [2] was more than 100 nM in each case.
For the molecule `COC[C@H](N)CCCOc1ccc(Cl)c(Cl)c1Cc1cnc2c(N)ncnn12` [Example 5, (R)-7-(6-((4-amino-5-methoxypentyl)oxy)-2,3-dichlorobenzyl)imidazo[2,1-f][1,2,4]triazin-4-amine], the IC50 in assay [1] was more than 100 nM; in the assay on H3K4me3 in MV4-11 cells it was more than 3000 nM; in assay [2] it was more than 100 nM.
Take `COC[C@H](N)CCCOc1ccc(Cl)c(Cl)c1Cc1cnn2c(N)ncnc12` [Example 8, (R)-8-(6-((4-amino-5-methoxypentyl)oxy)-2,3-dichlorobenzyl)pyrazolo[1,5-a][1,3,5]triazin-4-amine]: the IC50 in assay [1] is more than 100 nM; in the assay on H3K4me3 in MV4-11 cells it was more than 3000 nM; in assay [2] it was more than 100 nM.
Take `CC(C)COC[C@H](N)CCCOc1ccc(Cl)c(Cl)c1Cc1cnn2c(N)ncnc12` [Example 15, (R)-8-(6-((4-amino-5-isobutoxypentyl)oxy)-2,3-dichlorobenzyl)pyrazolo[1,5-a][1,3,5]triazin-4-amine]: the IC50 in assay [1] and in assay [2] was more than 100 nM throughout.
Take `CCOC[C@H](N)CCCOc1ccc(Cl)c(Cl)c1Cc1cnn2c(N)ncnc12` [Example 16, (R)-8-(6-((4-amino-5-ethoxypentyl)oxy)-2,3-dichlorobenzyl)pyrazolo[1,5-a][1,3,5]triazin-4-amine]: the IC50 in assay [1] was more than 100 nM; in the assay on H3K4me3 in MV4-11 cells, more than 3000 nM; in assay [2], more than 100 nM.
Take `COC[C@@H](N)CCOc1ccc(Cl)c(Cl)c1Cc1cnn2c(N)ncnc12` [Example 17, (S)-8-(6-(3-amino-4-methoxybutoxy)-2,3-dichlorobenzyl)pyrazolo[1,5-a][1,3,5]triazin-4-amine]: the IC50 in assay [1] and in assay [2] was more than 100 nM each time.
For `COC[C@H](N)CCCOc1cc2ccccc2cc1Cn1cnc2c(N)ncnc21` [Example 21, (R)-9-((3-((4-amino-5-methoxypentyl)oxy)naphthalen-2-yl)methyl)-9H-purin-6-amine], the IC50 is 50 to 100 nM in assay [1], more than 3000 nM in the assay with H3K4me3 in MV4-11 cells and more than 100 nM in assay [2].
With `CN[C@H](CCCOc1cc(Cl)cc(Br)c1Cn1cnc2c(N)ncnc21)COC` [Example 22, (R)-9-(2-bromo-4-chloro-6-((5-methoxy-4-(methylamino)pentyl)oxy)benzyl)-9H-purin-6-amine], the IC50 in assay [1] and in assay [2] was more than 100 nM each time.
As for `COc1nc(N)c2ncn(Cc3c(Cl)cc(Cl)cc3OCCC[C@@H](N)C(=O)O)c2n1` [Example 27, (R)-2-amino-5-(2-((6-amino-2-methoxy-9H-purin-9-yl)methyl)-3,5-dichlorophenoxy)pentanoic acid], the IC50 is 50 to 100 nM in assay [1] and more than 3000 nM in the assay on MV4-11 cells.
Taken in the same sequence, the figures for `COC(=O)C(N)CCCOc1cc(Cl)cc(Cl)c1Cn1cnc2c(N)ncc(Cl)c21` (centres unmarked) [Example 31, Methyl 2-amino-5-(2-((4-amino-7-chloro-1H-imidazo[4,5-c]pyridin-1-yl)methyl)-3,5-dichlorophenoxy)pentanoate] were less than 50 nM and less than 2000 nM.
For the molecule `CCOC(=O)[C@H](N)CCCOc1cc(Cl)cc(Cl)c1Cn1cnc2c(N)ncnc21` [Example 32, ethyl (R)-2-amino-5-(2-((6-amino-9H-purin-9-yl)methyl)-3,5-dichlorophenoxy)pentanoate], the IC50 in assay [1] was 50 to 100 nM; in the assay on MV4-11 cells, less than 2000 nM.
`Nc1ncnn2c(Cc3c(OCCC[C@@H](N)C(=O)NC4CC4)ccc(Cl)c3Cl)cnc12` [Example 36, (R)-2-amino-5-(2-((4-aminoimidazo[2,1-f][1,2,4]triazin-7-yl)methyl)-3,4-dichlorophenoxy)-N-cyclopropylpentanamide]: the values for the IC50 (in assay [1]; in the assay with H3K4me3 in MV4-11 cells; in assay [2]) were less than 50 nM, more than 3000 nM and less than 60 nM, respectively.
Taken in the same sequence, the figures for `Nc1ncnc2c(Cc3c(OCCC[C@@H](N)C(=O)NC4CC4)ccc(Cl)c3Cl)cnn12` [Example 37, (R)-2-amino-5-(2-((4-aminopyrazolo[1,5-a][1,3,5]triazin-8-yl)methyl)-3,4-dichlorophenoxy)-N-cyclopropylpentanamide] were 50 to 100 nM, more than 3000 nM and more than 100 nM.
Taken in the same sequence, the figures for `Nc1ncnc2c(Cc3c(OCCC[C@@H](N)CO)ccc(Cl)c3Cl)cnn12` [Example 44, (R)-2-amino-5-(2-((4-aminopyrazolo[1,5-a][1,3,5]triazin-8-yl)methyl)-3,4-dichlorophenoxy)pentan-1-ol] were more than 100 nM, more than 3000 nM and more than 100 nM.
